Data published in patent US6407058B1, “Modifying the permeability of physiological barriers” (Eisai Co., Limited, priority 1996, dated 2002).

Key:
p100/p120 [1] = assay: p100/p120 electrophoretic mobility (band shift) by immunoblotting, MDCK I cells; type: cell-based; conditions: MDCK I; for block of PDB-induced p100/p120 band shift: pretreatment 5 minutes (bisindolylmaleimide I or V 2.5 μM, Ro 31-8425 5 μM), then 200 nM PDB 30 minutes; for reversal of PDB-induced p100/p120 band shift: 200 nM PDB 30 minutes, then 2.5 μM inhibitor added in presence of PDB
Experimental: The migration of the cellular proteins p100 and p120 during electrophoresis is increased following PDB-treatment of MDCK I cells. PDB (phorbol-12,13-dibutyrate) is a pharmacological activator of protein kinase C. MDCK I cells are a kidney derived epithelial cell line, with particularly well developed junctional complexes. Cells treated for 30 minutes with either 200 nM PDB (+) or vehicle (−) were then lysed into Laemmli sample buffer, and separated by electrophoresis using 6% acrylamide gels. Proteins were transferred to nitrocellulose and probed with antibodies to p100/p120, and then reprobed with E-cadherin and paxillin antibodies.
(§1) MDCK strain I and II cells were provided by Barry Gumbiner (memorial Sloan-Kettering Cancer Center, NY). LLC-PK1 and Caco-2 cells were obtained from the European Collection of Animal Cell Cultures. All cells were maintained at 37° C. under 5% CO2 in humidified air. MDCK strain I and II cells were maintained in MEM containing 10% FCS, 100 U/ml penicillin, 100 μg/ml streptomycin and 2 mM L-glutamine. Caco-2 cells were maintained in MEM containing 15% FCS, 1% non-essential amino acids and 1 μg/ml bovine insulin (Sigma I-6634). LLC-PK1 cells were grown in M199 (Gibco), 10% FCS, 100 U/ml penicillin, 100 μg/ml streptomycin and 2 mM L-glutamine. For whole cell lysate analysis, 10^5 cells were plated on 6.5 mm diameter, 0.4 μm, polycarbonate Transwell filters from Costar, in 0.25 ml of medium. The basolateral chamber contained 0.75 ml of medium. For immunoprecipitation, 5×10^5 cells were plated onto 24 mm Transwell filters, in 2 ml of medium, with 3 ml of medium in the lower chamber. Cells were used 4-7 days after plating. Tissue culture materials were from Gibco. Porcine brain endothelial cells were isolated and grown by modifications of a previously published procedure (Rubin et al., 1991). Brain capillary fragments were plated on dishes coated with rat tail collagen and human fibronectin. The cultures were fed every other day with growth medium composed of 50% astrocyte-conditioned medium and 50% Dulbecco's Modified Eagle Medium containing 10% plasma-derived serum, 125 μg/ml heparin, antibiotics and glutamine. They were incubated in a humidified atmosphere of 10% CO2 at 37° C. When the endothelial cells were approximately 50% confluent (after 4-6 days in culture), they were trypsinized and plated onto collagen-coated polycarbonate Transwell filters (6.5 mm diameter, 0.4 μm pore size, tissue culture treated, Costar Corp, Cambridge, Mass., U.S.A.) in the same medium (250 μl apically, 750 μl basolaterally). After 2-3 days on filters, the medium was switched to a 1:1 mixture of astrocyte-conditioned medium and a Dulbecco's Modified Eagle Medium-based, chemically defined medium (‘N2’, Rubin et al., 1991; Bottenstein and Sato, 1979). The final concentration of plasma-derived serum was 5%. Human umbilical vein endothelial cells were from Clonetics.
(§2) Whole cell lysates were prepared by rapidly replacing the culture medium in 6.5 mm with hot Laemmli sample buffer, followed by heating at 100° C. for 5 minutes. Immunoprecipitations were carried out at 4° C. Confluent monolayers of cells were washed rapidly with ice cold PBS (containing 0.9 mM CaCl2 and 0.5 mM MgCl2) before addition of 0.5 ml of the appropriate buffer. The filters were then gently scraped, and the lysate was removed and centrifuged at 14000× g. The supernatant was precleared with 10% (w/v) protein A-Sepharose in lysis buffer for 30-60 minutes. Appropriate primary antibodies were added to the lysate, and after 2-3 hours the immunecomplex was isolated, using rabbit anti-mouse secondary antibodies (Jackson Immunoresearch Labs Inc., West Grove, Pa.) and protein A-Sepharose. The beads were washed fives times with lysis buffer, and the bound protein was solubilized in SDS-sample buffer, followed by heating at 100° C. for 5 minutes.
Cell extracts or immunoprecipitates in SDS sample buffer were resolved by SDS-PAGE. […]

p100/p120 [2] = assay: p100/p120 electrophoretic mobility, primary pig brain endothelial cells (PBECs); type: cell-based; conditions: for mobility of p120 and p100: LPA 10 μM
Experimental: (§3) Cells were treated with or without 200 nM PDB for 30 minutes, lysed into Laemmli sample buffer, separated by electrophoresis and analysed by immunoblotting with antibodies recognising p100 and p120.
as §1
as §2, with “A-Sepharose.” for “A-Sepharose. The beads were washed fives times with lysis buffer, and the bound protein was solubilized in SDS-sample buffer, followed by heating at 100° C. for 5 minutes.”

[3] = system: pig brain endothelial cell tight junctions; assay: transcellular electrical resistance (TER) of pig brain endothelial cell cultures; type: cell-based
Experimental: After 2 minutes the Transwells were returned to control medium and transcellular electrical resistance measurements were taken every minute for the following 18 minutes.
as §1
Transcellular electrical resistance (TER) measurements were taken with a pair of fixed, current-passing, voltage measuring electrodes (World Precision Instruments, Stevenage, Hertfordshire, U.K.). TER values are expressed in Ωcm^2 and were corrected for the resistance of cell-free filters.

p100/p120 [4] = assay: p100/p120 electrophoretic mobility, human umbilical vein endothelial cells (HUVECs); type: cell-based; conditions: HUVEC
[5] = system: brain endothelial cells tight junction; assay: tight junction permeability in pig brain endothelial cells; type: cell-based; conditions: results not shown
p100/p120 [6] = assay: p100/p120 electrophoretic mobility (band shift) by immunoblotting, MDCK I cells; type: cell-based
p100/p120 [7] = assay: p100/p120 electrophoretic mobility, human umbilical vein endothelial cells (HUVECs); type: cell-based; conditions: HUVEC; for mobility of p100 and p120, blocker alone: 10 μM blocker alone
Experimental: as §3
Human umbilical vein endothelial cells were incubated with histamine (His), pyrilamine (Pyr) or cimetidine (Cim) alone or in combination. As indicated, cells were preincubated in the absence or presence of cimetidine (10 μM) or pyrilamine (10 μM) for 10 minutes and then treated with or without histamine (10 μM) for a further 10 minutes. The cells were extracted and protein analysed by gel electrophoresis and immunoblotting. […] In the following examples, increase mobility of p100/p120 means decreased phosphorylation.
as §2
Cell extracts or immunoprecipitates in SDS sample buffer were resolved by SDS-PAGE. The slab gels were then equilibrated in buffer comprising; 48 mM Tris, 39 mM glycine, 20% methanol and 0.03% SDS. Proteins were transferred to nitrocellulose filters (Hybond ECL; Amersham), which were Ponceau S stained and then blocked for 2 hours at 37° C. with 1% BSA in PBS containing 0.05% Tween-20. Filters were then probed with p120 antibody, at a dilution of 1:2500. After washing, filters were incubated with horseradish peroxidase conjugated anti-mouse antibody (Amersham), at a dilution of 1:5000. The filters were then extensively washed in PBS/0.5% Tween-20, and immunoreactive bands were detected by enhanced chemiluminescence (Amersham) following the manufacturers instructions.

[8] = system: brain endothelial cells tight junction; conditions: pig brain endothelial cells (Schulze et al.); cited from earlier work
[9] = 15 minutes, histamine 10 μM, LPA 10 μM, ATP 100 μM

Cn1cc(C2=C(c3c4n(c5ccccc35)CCC(CN)C4)C(=O)NC2=O)c2ccccc21 (stereo not shown) [Ro 31-8425]
block of PDB-induced p100/p120 band shift (p100/p120 [1]): completely abolished

CN(C)CCCn1cc(C2=C(c3c[nH]c4ccccc34)C(=O)NC2=O)c2ccccc21 [bisindolylmaleimide I]
prevention of sorbitol-induced increase in p100/p120 mobility (p100/p120 [2]; 2.5 μM bisindolylmaleimide 5 minutes pretreatment, then 0.3M sorbitol): not prevented
block of LPA-induced p100/p120 mobility increase (p100/p120 [2]; bisindolylmaleimide 2.5 μM preincubation 10 minutes, then LPA 10 μM 70 minutes): not blocked
transcellular electrical resistance after sorbitol following bisindolylmaleimide pre-incubation ([3]; 2.5 μM bisindolylmaleimide pre-incubation, then 0.3M sorbitol 10 minutes, from 643 before treatment): 93 Ωcm^2
block of phorbol dibutyrate effect on p100/p120 mobility (p100/p120 [4]; bisindolylmaleimide 2 μM preincubation 15 minutes, then PDB 200 nM 5 minutes): blocked
block of histamine effect on p100/p120 mobility (p100/p120 [4]; bisindolylmaleimide 2 μM preincubation 15 minutes, then histamine 10 μM 5 minutes): not so strongly affected
reversal of PDB-induced p100/p120 band shift (p100/p120 [1]): can be reversed
block of PDB-induced p100/p120 band shift (p100/p120 [1]): completely abolished
block of LPA-induced increase in tight junction permeability [5]: did not block

OC[C@@H](O)[C@@H](O)[C@H](O)[C@H](O)CO [mannitol]
transcellular electrical resistance ([3]; 0.2-0.4 M mannitol, up to 6 hours): causes a drop
reversibility of drop in transcellular electrical resistance ([3]; 0.4M or 0.8M mannitol 2 minutes, then control medium 18 minutes): fully reversible
time at which drop in transcellular electrical resistance is clearly seen ([3]; 0.8M mannitol, recorded over 2 minutes): ≤ 20 s

COC[C@@H]([C@H](O)[C@H](O)C(=O)NCC[C@H](C)c1nc(/C=C/C[C@@H]2O[C@]3(C[C@@H](O)[C@@H]2C)O[C@H]([C@H](C[C@H](O)[C@H](C)[C@H](O)[C@H](C)/C=C(C)/C(C)=C/C=C/C(C)=C\C#N)OC)[C@H](OP(=O)(O)O)C3(C)C)co1)N(C)C [calyculin A]
effect on p100/p120 mobility (p100/p120 [6]; 100 nM calyculin A, 60 minutes): upward band shift

CN1C(=O)C(c2c[nH]c3ccccc23)=C(c2c[nH]c3ccccc23)C1=O [bisindolylmaleimide V]
reversal of PDB-induced p100/p120 band shift (p100/p120 [1]): did not reverse
block of PDB-induced p100/p120 band shift (p100/p120 [1]): unable to block

COc1ccc(CN(CCN(C)C)c2ccccn2)cc1 [pyrilamine]
mobility of p100 and p120, blocker alone (p100/p120 [7]): no effect
block of histamine effect on p100/p120 mobility (p100/p120 [7]; 10 μM preincubation 10 minutes, then histamine 10 μM 10 minutes): blocked the histamine effect

Nc1ncnc2c1ncn2[C@@H]1O[C@H](COP(=O)(O)OP(=O)(O)OP(=O)(O)O)[C@@H](O)[C@H]1O [ATP]
mobility of p100 and p120 (p100/p120 [4]; [9]): increase in the mobility

NCCc1c[nH]cn1 [histamine]
mobility of p120 and p100 (p100/p120 [4]; 5 minutes, histamine 10 μM, PDB 200 nM): increased mobility
mobility of p100 and p120 (p100/p120 [4]; [9]): increase in the mobility
mobility of p100 and p120 (p100/p120 [4]; histamine 10 μM, 10 minutes): induced an increased mobility
mobility of p100 and p120, time course (p100/p120 [4]; histamine, times indicated (FIG. 11)): rapid increase in the mobility

CN[C@@H]1C[C@H]2O[C@@](C)([C@@H]1OC)n1c3ccccc3c3c4c(c5c6ccccc6n2c5c31)C(=O)NC4 [staurosporine]
effect on p100/p120 mobility (p100/p120 [6]; 100 nM staurosporine, 60 minutes): induced a p100/p120 band shift

C=C1[C@@H](O)[C@@H]2O[C@]3(CC[C@H](/C=C/[C@@H](C)[C@@H]4CC(C)=C[C@@]5(O[C@H](C[C@@](C)(O)C(=O)O)CC[C@H]5O)O4)O3)CC[C@H]2O[C@@H]1[C@@H](O)C[C@H](C)[C@H]1O[C@@]2(CCCCO2)CC[C@H]1C [okadaic acid]
effect on p100/p120 mobility (p100/p120 [6]; 1 μM okadaic acid, 60 minutes): upward band shift

lysophosphatidic acid [LPA]
mobility of p120 and p100 (p100/p120 [2]; pig brain endothelial cells, 30 minutes): increased mobility
mobility of p120 and p100 (p100/p120 [2]; pig brain endothelial cells, 70 minutes): increased mobility
onset of LPA effect on p100/p120 (p100/p120 [2]; pig brain endothelial cells, further experiments): within a few minutes
tight junction permeability [8]: increases tight junction permeability
mobility of p100 and p120 (p100/p120 [4]; [9]): increase in the mobility

OC[C@@H](O)[C@@H](O)[C@H](O)[C@@H](O)CO [sorbitol]
transcellular electrical resistance after treatment ([3]; 0.3M sorbitol, 10 minutes, from 677 before treatment): 73 Ωcm^2

CN/C(=N/CCSCc1nc[nH]c1C)NC#N [cimetidine]
mobility of p100 and p120, blocker alone (p100/p120 [7]): no effect

CCCOc1ccc2c(c1)c1c3c(c4c5ccccc5n5c4c1n2[C@H]1C[C@](O)(C(=O)OC)[C@]5(C)O1)CNC3=O [KT 5926]
effect on p100/p120 mobility (p100/p120 [6]; 1 μM KT 5926): also induced a p100/p120 band shift

CCCC(=O)O[C@@H]1[C@@H](C)[C@@]2(O)[C@@H](C=C(CO)C[C@@]3(O)C(=O)C(C)=C[C@@H]23)[C@@H]2C(C)(C)[C@]12OC(=O)CCC [4α-PDB]
effect on p100/p120 mobility (p100/p120 [1]; 200 nM 4α-PDB, 30 minutes): no effect

CCCCCCCC(=O)OCC(CO)OC(=O)CCCCCCC (stereo not shown) [DiC8, 1,2-dioctanoylglycerol]
effect on p100/p120 mobility (p100/p120 [6]; 0.5 mM DiC8, 10 minutes): induces a p100/p120 mobility shift
